This note sets out measurements from ChEMBL document CHEMBL1131722, “P1, P2'-linked macrocyclic amine derivatives as matrix metalloproteinase inhibitors” (Bioorg Med Chem Lett, 1999).

The structures appear in SMILES notation.

The term Ki denotes the dissociation constant of the complex between target and ligand, obtained from inhibition or displacement. Low values mean higher affinity, high ones lower affinity.

The target of one experiment is Stromelysin-1 (Homo sapiens, UniProt P08254). Kind of experiment: Inhibition of Matrix metalloprotease-3 (MMP-3).
Sequence of Stromelysin-1 (P08254 whole entry): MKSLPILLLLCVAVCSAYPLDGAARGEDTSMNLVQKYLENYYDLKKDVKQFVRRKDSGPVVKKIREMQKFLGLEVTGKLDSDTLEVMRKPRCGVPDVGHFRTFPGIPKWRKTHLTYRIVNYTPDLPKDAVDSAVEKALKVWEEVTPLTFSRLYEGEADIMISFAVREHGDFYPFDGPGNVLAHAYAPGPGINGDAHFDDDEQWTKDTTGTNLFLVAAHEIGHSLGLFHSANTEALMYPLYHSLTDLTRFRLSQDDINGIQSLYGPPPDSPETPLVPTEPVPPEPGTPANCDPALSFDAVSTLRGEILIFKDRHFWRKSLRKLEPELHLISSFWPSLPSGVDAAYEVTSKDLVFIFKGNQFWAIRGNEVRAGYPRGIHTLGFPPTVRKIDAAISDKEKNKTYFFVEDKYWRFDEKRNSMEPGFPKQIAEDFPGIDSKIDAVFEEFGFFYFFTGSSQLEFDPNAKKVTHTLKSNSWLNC
Experiment [1] deals with Matrix metalloproteinase-9 (Homo sapiens, UniProt P14780). The experiment can be described thus: Inhibition of Matrix metalloprotease-9 (MMP-9).
Sequence of Matrix metalloproteinase-9 (P14780 whole entry): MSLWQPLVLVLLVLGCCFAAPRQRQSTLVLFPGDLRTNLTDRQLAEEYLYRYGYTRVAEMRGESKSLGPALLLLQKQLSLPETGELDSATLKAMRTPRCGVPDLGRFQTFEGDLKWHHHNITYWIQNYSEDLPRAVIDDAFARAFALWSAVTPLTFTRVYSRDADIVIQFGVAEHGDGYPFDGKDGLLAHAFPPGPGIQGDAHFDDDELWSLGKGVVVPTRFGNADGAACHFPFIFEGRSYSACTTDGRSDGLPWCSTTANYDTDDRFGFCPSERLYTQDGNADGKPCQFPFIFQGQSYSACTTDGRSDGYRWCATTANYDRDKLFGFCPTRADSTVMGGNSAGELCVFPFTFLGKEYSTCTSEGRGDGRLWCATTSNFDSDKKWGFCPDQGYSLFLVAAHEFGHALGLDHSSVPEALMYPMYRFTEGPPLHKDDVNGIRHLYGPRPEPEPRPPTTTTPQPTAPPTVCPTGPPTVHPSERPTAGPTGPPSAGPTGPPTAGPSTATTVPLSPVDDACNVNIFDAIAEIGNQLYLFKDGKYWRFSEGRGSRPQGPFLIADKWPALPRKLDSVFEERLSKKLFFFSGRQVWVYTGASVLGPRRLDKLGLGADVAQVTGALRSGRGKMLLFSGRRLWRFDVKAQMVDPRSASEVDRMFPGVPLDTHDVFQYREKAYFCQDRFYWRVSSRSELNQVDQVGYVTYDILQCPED
The next experiment addresses Neutrophil collagenase (Homo sapiens, UniProt P22894). Kind of experiment: Inhibition of Matrix metalloprotease-8 (MMP-8).
In another experiment the target is T1, Interstitial collagenase (Homo sapiens, UniProt P03956).
T1 sequence (P03956 whole entry): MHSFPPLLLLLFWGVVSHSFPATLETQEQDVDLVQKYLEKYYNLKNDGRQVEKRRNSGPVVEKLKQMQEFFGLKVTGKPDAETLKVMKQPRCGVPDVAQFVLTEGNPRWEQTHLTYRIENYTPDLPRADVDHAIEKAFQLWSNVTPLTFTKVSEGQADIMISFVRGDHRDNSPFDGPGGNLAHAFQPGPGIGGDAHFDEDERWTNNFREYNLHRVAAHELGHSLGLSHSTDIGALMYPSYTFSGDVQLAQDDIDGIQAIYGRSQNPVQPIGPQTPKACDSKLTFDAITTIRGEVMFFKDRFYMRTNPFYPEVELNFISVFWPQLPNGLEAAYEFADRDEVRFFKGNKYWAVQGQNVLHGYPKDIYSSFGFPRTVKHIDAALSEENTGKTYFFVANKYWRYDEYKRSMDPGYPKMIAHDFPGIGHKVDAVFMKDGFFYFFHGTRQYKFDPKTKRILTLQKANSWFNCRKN
Kind of experiment: Inhibition of Matrix metalloprotease-1 (MMP-1).

Sequence of Neutrophil collagenase (P22894 whole entry): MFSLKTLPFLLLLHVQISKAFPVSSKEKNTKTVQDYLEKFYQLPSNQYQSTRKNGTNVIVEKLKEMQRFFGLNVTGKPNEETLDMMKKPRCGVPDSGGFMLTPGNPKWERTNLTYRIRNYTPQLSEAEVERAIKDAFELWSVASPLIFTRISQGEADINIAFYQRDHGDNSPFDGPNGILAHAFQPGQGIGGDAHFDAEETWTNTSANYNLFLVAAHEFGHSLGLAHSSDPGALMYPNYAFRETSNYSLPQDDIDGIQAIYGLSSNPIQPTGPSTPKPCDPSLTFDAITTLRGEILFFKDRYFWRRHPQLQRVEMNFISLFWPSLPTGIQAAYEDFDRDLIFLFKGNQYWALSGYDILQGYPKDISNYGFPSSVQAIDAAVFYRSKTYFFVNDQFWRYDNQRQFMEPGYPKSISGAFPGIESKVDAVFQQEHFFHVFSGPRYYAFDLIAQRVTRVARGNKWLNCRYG

With `CNC(=O)[C@@H]1CCCN(C(=O)OC(C)(C)C)CCCCO[C@H](C(=O)NO)[C@@H](CCCc2ccccc2)C(=O)N1`, the Ki at Stromelysin-1 is 0.373 µM; in experiment [1], 0.019 µM; on Neutrophil collagenase, 0.013 µM; at Interstitial collagenase it was 1.07 µM.

On to `CNC(=O)[C@@H]1CCCNCCCCO[C@H](C(=O)NO)[C@@H](CCCc2ccccc2)C(=O)N1`, for which the inhibition constant Ki on Stromelysin-1 was determined as 0.265 µM; in experiment [1] it was 0.021 µM; on Neutrophil collagenase it was 0.004 µM; at Interstitial collagenase, 0.496 µM.

`CNC(=O)[C@@H]1CCCN(S(=O)(=O)c2ccccc2)CCCCO[C@H](C(=O)NO)[C@@H](CCCc2ccccc2)C(=O)N1`: the Ki was determined as 0.002 µM in experiment [1] and 0.11 µM on Interstitial collagenase.

`CNC(=O)[C@@H]1CCCN(C(C)=O)CC(C)CO[C@H](C(=O)NO)[C@@H](CCCc2ccccc2)C(=O)N1` (some centres not stated): the Ki on Stromelysin-1 came to 0.267 µM; in experiment [1], 0.013 µM; at Neutrophil collagenase it was 0.007 µM; at Interstitial collagenase, 0.44 µM.

For `CNC(=O)[C@@H]1CCCN(C(C)=O)CCCCO[C@H](C(=O)NO)[C@@H](CCCc2ccccc2)C(=O)N1`, the Ki at Stromelysin-1 was 0.038 µM; in experiment [1], 0.006 µM; at Interstitial collagenase, 0.248 µM.
